Measured values reported in ChEMBL document CHEMBL1138013, “Parallel methods for the preparation and SAR exploration of N-ethyl-4-[(8-alkyl-8-aza-bicyclo[3.2.1]oct-3-ylidene)-aryl-methyl]-benzamides, powerful mu and delta opioid agonists” (Bioorg Med Chem Lett, 2004).

Experiments:
[1] = biological target: Mu-type opioid receptor (Mus musculus) (UniProt P42866); experiment: Ratio of binding affinity against mu to that of delta opioid receptor
Mu-type opioid receptor = Mu-type opioid receptor (Mus musculus, UniProt P42866); experiment: Binding affinity against mu opioid receptor […]
Mu-type opioid receptor, sequence (P42866 whole entry): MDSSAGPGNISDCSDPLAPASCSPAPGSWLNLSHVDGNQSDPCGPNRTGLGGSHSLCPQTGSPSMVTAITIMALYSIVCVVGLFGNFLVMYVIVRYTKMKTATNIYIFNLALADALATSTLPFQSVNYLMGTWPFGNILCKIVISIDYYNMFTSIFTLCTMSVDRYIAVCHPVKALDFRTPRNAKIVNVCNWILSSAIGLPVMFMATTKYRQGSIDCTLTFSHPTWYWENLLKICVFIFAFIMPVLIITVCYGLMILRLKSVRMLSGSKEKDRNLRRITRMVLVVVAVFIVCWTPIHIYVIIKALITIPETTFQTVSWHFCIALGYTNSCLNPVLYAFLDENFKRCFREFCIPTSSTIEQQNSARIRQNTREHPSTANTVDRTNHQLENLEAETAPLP

[2] = Binding affinity against delta opioid receptor […]; parameters: species or system Mus musculus

Mu-type opioid receptor (Mus musculus), sequence (P42866 whole entry): as above

| Structure (SMILES) | Ratio [1] | Ki (Mu-type opioid receptor) [nM] | Ki [2] [nM] |
| --- | --- | --- | --- |
| CCNC(=O)c1ccc(C(C#N)=C2CC3CCC(C2)N3Cc2ccoc2)cc1 | 3.3 | 1 | 0.3 |
| CCNC(=O)c1ccc(C(=C2CC3CCC(C2)N3Cc2c[nH]cn2)c2cccc(NC(C)=O)c2)cc1 | 0.5 | – | 19 |
| CCNC(=O)c1ccc(C(=C2CC3CCC(C2)N3Cc2ccoc2)c2ccc(F)cc2)cc1 | 1.2 | 1.7 | 1.4 |
| CCNC(=O)c1ccc(C(=C2CC3CCC(C2)N3Cc2ccoc2)c2ccc(S(C)(=O)=O)cc2)cc1 | 1.6 | 3.1 | 2 |
| CCNC(=O)c1ccc(C(=C2CC3CCC(C2)N3Cc2ccoc2)c2cccc(-c3nn[nH]n3)c2)cc1 | 2100 | – | 0.73 |
| CCNC(=O)c1ccc(C(=C2CC3CCC(C2)N3Cc2ccccn2)c2cccc(NC(C)=O)c2)cc1 | 0.13 | 3.6 | 28 |
| CCNC(=O)c1ccc(C(=C2CC3CCC(C2)N3Cc2ccoc2)c2ccccn2)cc1 | 4.5 | 45 | 10 |
| CCNC(=O)c1ccc(C(=C2CC3CCC(C2)N3Cc2ccoc2)c2cccc(C(C)=O)c2)cc1 | 3.3 | 1.3 | 0.4 |
| CCNC(=O)c1ccc(/C(C#N)=C2\C[C@H]3CC[C@@H](C2)N3Cc2ccoc2)cc1 | – | 2.6 | 0.9 |
| CCNC(=O)c1ccc(C(=C2CC3CCC(C2)N3Cc2ccoc2)c2cccnc2)cc1 | 3 | 1.2 | 0.4 |
| CCNC(=O)c1ccc(C(=C2CC3CCC(C2)N3Cc2ccoc2)c2ccc(N(C)C)cc2)cc1 | 5.9 | 51 | 8.7 |
| CCNC(=O)c1ccc(C(=C2CC3CCC(C2)N3CCc2ccccc2)c2ccccc2)cc1 | 300 | 72 | 0.24 |
| C=C(C)CCN1[C@@H]2CC[C@H]1C/C(=C(\c1ccc(C(=O)NCC)cc1)c1cccc(C(C)=O)c1)C2 | – | 680 | 28 |
| CCNC(=O)c1ccc(/C(Br)=C2\C[C@H]3CC[C@@H](C2)N3Cc2ccoc2)cc1 | – | 0.2 | 0.3 |
| CCNC(=O)c1ccc(/C(=C2\C[C@H]3CC[C@@H](C2)N3Cc2ccsc2)c2ccc(CO)cc2)cc1 | – | 17 | 2 |
| CCNC(=O)c1ccc(C(=C2CC3CCC(C2)N3Cc2ccoc2)c2c(C)noc2C)cc1 | 1.5 | 1.8 | 1.2 |
| CCNC(=O)c1ccc(C(=C2CC3CCC(C2)N3Cc2ccoc2)c2cccc(C(=O)O)c2)cc1 | 8 | – | 3.5 |
| CCNC(=O)c1ccc(/C(=C2\C[C@H]3CC[C@@H](C2)N3Cc2ccccn2)c2ccc(C(=O)N(C)C)cc2)cc1 | – | 14 | 0.2 |
| CCNC(=O)c1ccc(C(=C2CC3CCC(C2)N3Cc2cccnc2)c2ccccc2)cc1 | 0.87 | – | 71 |
| CCNC(=O)c1ccc(C(Br)=C2CC3CCC(C2)N3Cc2ccoc2)cc1 | 2.4 | 1.9 | 0.8 |
| CCNC(=O)c1ccc(C(=C2CC3CCC(C2)N3Cc2ccoc2)c2cccc(CN)c2)cc1 | 3.6 | 71 | 20 |

| Structure (SMILES) | Ratio [1] | Ki (Mu-type opioid receptor) [nM] | Ki [2] [nM] |
| --- | --- | --- | --- |
| CCNC(=O)c1ccc(C(=C2CC3CCC(C2)N3Cc2ccoc2)c2ccc(C(C)=O)cc2)cc1 | 5.2 | 1.7 | 0.33 |
| CCNC(=O)c1ccc(C(=C2CC3CCC(C2)N3Cc2ccoc2)c2c(C)cccc2C)cc1 | 1.1 | 1.4 | 1.3 |
| CCNC(=O)c1ccc(C(=C2CC3CCC(C2)N3Cc2ccoc2)c2cnc3ccccc3c2)cc1 | 0.2 | 4 | 20 |
| CCNC(=O)c1ccc(C(=C2CC3CCC(C2)N3Cc2ccoc2)c2ccc(NC(C)=O)cc2)cc1 | 2.4 | 0.8 | 0.34 |
| CCNC(=O)c1ccc(/C(=C2\C[C@H]3CC[C@@H](C2)N3Cc2ccsc2)c2cccc(-c3nn[nH]n3)c2)cc1 | – | 12 | 0.7 |
| C=C(C)CCN1[C@@H]2CC[C@H]1C/C(=C(/c1ccc(C(=O)NCC)cc1)c1cccc(C(C)=O)c1)C2 | – | 2.8 | 1.5 |
| CCNC(=O)c1ccc(C(=C2CC3CCC(C2)N3Cc2ccoc2)c2ccc3c(c2)OCO3)cc1 | 1 | 1.1 | – |
| CCNC(=O)c1ccc(/C(C#N)=C2/C[C@H]3CC[C@@H](C2)N3Cc2ccoc2)cc1 | – | 2.3 | 1.1 |
| CCNC(=O)c1ccc(C(=C2CC3CCC(C2)N3Cc2ccoc2)c2cccc(C#N)c2)cc1 | 5.5 | 3.3 | 0.6 |
| CCNC(=O)c1ccc(C(=C2CC3CCC(C2)N3Cc2ccoc2)c2cc(N)cc(C(=O)O)c2)cc1 | 160 | 9100 | 56 |
| C=C(C)CCN1[C@@H]2CC[C@H]1C/C(=C(/c1ccc(C(=O)NCC)cc1)c1cccc(C(=O)O)c1)C2 | – | 58 | 2.2 |
| CCNC(=O)c1ccc(C(=C2CC3CCC(C2)N3Cc2cccs2)c2ccccn2)cc1 | 1.6 | 6 | 3.8 |
| CCNC(=O)c1ccc(C(=C2CC3CCC(C2)N3Cc2ccoc2)c2cccc(N)c2)cc1 | 1.3 | 2.6 | 2 |
| CCNC(=O)c1ccc(C(=C2CC3CCC(C2)N3Cc2ccoc2)c2cncnc2)cc1 | 3 | 6.9 | 2.3 |
| CCNC(=O)c1ccc(C(=C2CC3CCC(C2)N3Cc2cnc[nH]2)c2cccc(NC(C)=O)c2)cc1 | – | 9.4 | – |
| CCNC(=O)c1ccc(C(=C2CC3CCC(C2)N3Cc2ccoc2)c2ccc(O)c(OC)c2)cc1 | 2 | 0.59 | 0.3 |
| CCNC(=O)c1ccc(C(=C2CC3CCC(C2)N3Cc2ccsc2)c2ccc3c(c2)OCO3)cc1 | 0.42 | 1.3 | 3.1 |
| CCNC(=O)c1ccc(C(=C2CC3CCC(C2)N3Cc2ccoc2)c2ccc([N+](=O)[O-])cc2)cc1 | 6.5 | 1.5 | 0.23 |
| CCNC(=O)c1ccc(C(=C2CC3CCC(C2)N3Cc2ccoc2)c2ccncc2)cc1 | 0.37 | 2.2 | 6 |
| CCNC(=O)c1ccc(C(=C2CC3CCC(C2)N3Cc2ccoc2)c2cccc(CO)c2)cc1 | 5.4 | 0.81 | 0.15 |
| CCNC(=O)c1ccc(C(=C2CC3CCC(C2)N3Cc2ccoc2)c2cccc(F)c2)cc1 | 9.3 | 3.7 | 0.4 |

| Structure (SMILES) | Ratio [1] | Ki (Mu-type opioid receptor) [nM] | Ki [2] [nM] |
| --- | --- | --- | --- |
| CCNC(=O)c1ccc(C(=C2CC3CCC(C2)N3Cc2ccoc2)c2cc(C(=O)O)cc([N+](=O)[O-])c2)cc1 | 13 | 12 | 0.94 |
| CCN(CC)C(=O)c1ccc(C(=C2CC3CCC(C2)N3CCc2ccccc2)c2ccccc2)cc1 | 0.0055 | 0.26 | 47 |
| CCNC(=O)c1ccc(C(=C2CC3CCC(C2)N3Cc2cccc(C(=O)O)c2)c2ccccc2)cc1 | 1.7 | 480 | 280 |
| C=C(C)CCN1C2CCC1CC(=C(c1ccc(C(=O)NCC)cc1)c1ccco1)C2 | 1.1 | 6.3 | 5.6 |
| CCNC(=O)c1ccc(C(=C2CC3CCC(C2)N3Cc2ccoc2)c2nnn[nH]2)cc1 | 0.4 | 83 | 210 |
| CCNC(=O)c1ccc(/C(Br)=C2/C[C@H]3CC[C@@H](C2)N3Cc2ccoc2)cc1 | – | 39 | 29 |
| CCNC(=O)c1ccc(C(=C2CC3CCC(C2)N3Cc2ccoc2)c2ccc(C(=O)O)cc2)cc1 | 2.3 | 12 | 5.3 |
| CCNC(=O)c1ccc(C(=C2CC3CCC(C2)N3Cc2ccoc2)c2ccc(C(=O)N(C)C)cc2)cc1 | 1.5 | 6.7 | 4.6 |
| CCNC(=O)c1ccc(C(=C2CC3CCC(C2)N3Cc2ccsc2)c2cnccn2)cc1 | 0.15 | 2.5 | 17 |
| CCNC(=O)c1ccc(C=C2CC3CCC(C2)N3Cc2ccoc2)cc1 | 1.2 | 110 | 93 |
| C=C(C)CCN1[C@@H]2CC[C@H]1C/C(=C(\c1ccc(C(=O)NCC)cc1)c1cccc(C(=O)O)c1)C2 | – | 24 | 30 |
| C=C(C)CCN1C2CCC1CC(=C(c1ccc(C(=O)NCC)cc1)c1cccc(C(C)=O)c1)C2 | 1.1 | 1.9 | 1.8 |
| CCNC(=O)c1ccc(C(=C2CC3CCC(C2)N3Cc2ccoc2)c2cnccn2)cc1 | 2.9 | 9.9 | 3.4 |
| CCNC(=O)c1ccc(/C(=C2/C[C@H]3CC[C@@H](C2)N3Cc2ccsc2)c2cccc(-c3nn[nH]n3)c2)cc1 | – | 3100 | 31 |
| CCNC(=O)c1ccc(C(=C2CC3CCC(C2)N3Cc2ccoc2)c2cccc(CCC(=O)O)c2)cc1 | 3.9 | 3 | 0.78 |
| CCNC(=O)c1ccc(C(=C2CC3CCC(C2)N3Cc2ccoc2)c2ccc(CO)cc2)cc1 | 7 | 19 | 2.7 |
| CCNC(=O)c1ccc(C(=C2CC3CCC(C2)N3Cc2ccoc2)c2ccc(C(N)=O)cc2)cc1 | 0.33 | 1.3 | 3.9 |
| CCNC(=O)c1ccc(/C(=C2/C[C@H]3CC[C@@H](C2)N3Cc2ccccn2)c2ccc(C(=O)N(C)C)cc2)cc1 | – | 100 | 0.5 |
| CCNC(=O)c1ccc(/C(=C2/C[C@H]3CC[C@@H](C2)N3Cc2ccsc2)c2ccc(CO)cc2)cc1 | – | 80 | 17 |
| CCNC(=O)c1ccc(C(=C2CC3CCC(C2)N3Cc2ccoc2)c2ccc(S(N)(=O)=O)cc2)cc1 | 3.1 | 50 | 16 |
| CCNC(=O)c1ccc(C(=C2CC3CCC(C2)N3Cc2ccoc2)c2cccc(NC(C)=O)c2)cc1 | 2.4 | 1.2 | 0.5 |
